The values that follow come from patent US12377086B2, “Therapeutic methods, combinations and kits” (priority 2021, dated 2025).

One data set deals with HEK293 cells. As to the kind of experiment: Human cell cytotoxicity assay (MTT). The following applies: 72 h.
In data set [1] the target is T1, VIM-2 (Pseudomonas aeruginosa, UniProt Q5U7L7). As to the kind of experiment: biochemical. The note with it: for IC50: 5 nM MBL, 10 μM nitrocefin, read-out: VIM-2 IC50; for Ki: nitrocefin substrate, competitive-inhibition fit, read-out: VIM-2 Ki. How it is done: The pET24a-VIM-2 plasmid was transformed into competent BL21 (DE3) E. coli cells. The cells were plated onto an LB-agar plate with kanamycin (25 μg/mL) and incubated overnight at 37° C. A single colony was used to inoculate 50 mL of LB, containing 25 μg/mL kanamycin, and the culture was shaken overnight at 37° C. From the overnight culture, 10 mL were transferred to 4×IL LB medium containing 25 μg/mL kanamycin. The cultures were grown at 37° C. until an optical density (OD600 nm) of 0.6-0.8 was reached, at which point protein production was induced with IPTG (0.5 mM) and ZnCl2 (100 μM). The temperature was reduced to 20° C., and the cells were shaken for an additional 18 h. The cultures were harvested by centrifugation (8 Kxg) for 10 min at 4° C. The resulting pellets were re-suspended in 25 mL of 50 mM HEPES, pH 7.5, containing 500 mM NaCl (buffer B). The cells were lysed with three passes through a French Press. The lysate was centrifuged (15 Kxg) for 30 min at 4° C. The supernatant was dialyzed against 2 L of 50 mM HEPES, pH 7.5 (buffer A), for 4 h. Buffer A was used to equilibrate a 25 mL Q-Sepharose column using an FPLC. The sample was loaded onto the column, and proteins were eluted with a linear gradient 0-500 mM NaCl with buffer B. Fractions containing VIM-2, determined by SDS-PAGE, were pooled and concentrated to 2-3 mL in an Amicon ultraconcentrator equipped YM-10 membrane. […] Fractions containing pure VIM-2 were pooled, and metal analysis was performed.
The enzyme inhibition constant (Ki) was derived from initial-velocity measurements by nonlinear regression using competitive-inhibition enzyme kinetics using Graphpad Prism 6.

Data set [2] addresses T1, VIM-2. Kind of data set: biochemical. The note with it: for VIM-2 percentage inhibition: 50 μM compound, 5 nM MBL, 10 μM nitrocefin, 30 mins. How it is done: The pET24a-VIM-2 plasmid was transformed into competent BL21 (DE3) E. coli cells. The cells were plated onto an LB-agar plate with kanamycin (25 μg/mL) and incubated overnight at 37° C. A single colony was used to inoculate 50 mL of LB, containing 25 μg/mL kanamycin, and the culture was shaken overnight at 37° C. From the overnight culture, 10 mL were transferred to 4×IL LB medium containing 25 μg/mL kanamycin. The cultures were grown at 37° C. until an optical density (OD600 nm) of 0.6-0.8 was reached, at which point protein production was induced with IPTG (0.5 mM) and ZnCl2 (100 μM). The temperature was reduced to 20° C., and the cells were shaken for an additional 18 h. The cultures were harvested by centrifugation (8 Kxg) for 10 min at 4° C. The resulting pellets were re-suspended in 25 mL of 50 mM HEPES, pH 7.5, containing 500 mM NaCl (buffer B). The cells were lysed with three passes through a French Press. The lysate was centrifuged (15 Kxg) for 30 min at 4° C. The supernatant was dialyzed against 2 L of 50 mM HEPES, pH 7.5 (buffer A), for 4 h. Buffer A was used to equilibrate a 25 mL Q-Sepharose column using an FPLC. The sample was loaded onto the column, and proteins were eluted with a linear gradient 0-500 mM NaCl with buffer B. Fractions containing VIM-2, determined by SDS-PAGE, were pooled and concentrated to 2-3 mL in an Amicon ultraconcentrator equipped YM-10 membrane. Further purification was conducted with a Sephacryl S-200 gel filtration column using 50 mM HEPES, pH 7.5, containing 150 mM NaCl. Fractions containing pure VIM-2 were pooled, and metal analysis was performed.
(§1) To identify potential MBL inhibitors, the relative change in the formation of hydrolyzed nitrocefin between treated and untreated MBL was determined as percentage inhibition. 5 nM of each BML was pre-incubated for 10 mins with 50 μM of each compound, followed by the addition of 10 μM nitrocefin.
(§2) Each MBL was incubated with 50 μM of each compound, followed by the addition of nitrocefin. The relative change in absorbance is reported as percentage inhibition.

Data set [3] concerns VIM-2 expressing E. coli. The class given is cell-based, Escherichia coli. The method, then:
(§3) The optical density of the cell cultured was monitored at 600 nm (OD600 nm). The cells were cultured on 0.8 g/100 ml nutrient agar plate at pH 7.0 and 37° C. […] An overnight culture of the bacterial strain was sub-cultured to 0.06 OD600 nm into the NB medium and was then seeded at max 200 μl into the wells of a 96 well microtiter plate. Samples were then incubated at 37° C. and shaken at 200 rpm for 18 h. The absorbance was measured on an ELIZA plate reader and analyzed with the Gen5™ software suite (version 1.08).
The bacterial culture was prepared as described above. The diluted subculture bacteria in NB medium were set up to a final volume of 200 μl in clear flat-bottom 96-well plates containing ten different concentrations of each tested compound ranging from 0.001 μM to 50 μM. The mixing of the bacterial culture plate were then incubated in a 37° C. […] shaken incubator at 200 rpm for 18 h before measuring their optical density at 600 nm.

Data set [4] relates to VIM-2 expressing E. coli. The format is cell-based, Escherichia coli. The following applies: VIM-2 expressing E. coli, compound with amoxicillin. The method, then:
as §3
• The data are reported as relative percentage growth compared to untreated cells.

The next data set deals with NDM-1 (Klebsiella pneumoniae, UniProt C7C422). As to the kind of experiment: biochemical. The note with it: read-out: NDM-1 percentage inhibition, 50 μM compound, 5 nM MBL, 10 μM nitrocefin, 30 mins. How it is done:
BL21 (DE3) E. coli cells containing the pET26b-ndm-1 plasmid were used to inoculate a 50 mL LB starter culture containing kanamycin (25 μg/mL). The culture was grown overnight at 37° C. The starter culture was then used to inoculate 4×1 L LB containing kanamycin (25 μg/mL). These flasks were incubated at 37° C. until culture reached an optical density of (OD600) of 0.6 to 0.8. The incubator was then set to 22° C. and the cultures were shaken for 30 min to allow them to cool. ZnCl2 ([…]) and IPTG (0.5 mM) were then added to the cultures and they were grown for 18 h at 22° C. The cells were then harvested using centrifugation (8000×g) for 10 min. The pellet was resuspended with 25 mL 50 mM HEPES, pH 7.5 containing 500 mM NaCl (Buffer B). Lysis was performed with three passes through a French Press. The lysate was centrifuged for 30 min (15,000×g) at 4° C. The supernatant was then dialyzed versus 2 L 50 mM HEPES, pH 7.5 (Buffer C) for 4 h. An FPLC was used to equilibrate a Q-Sepharose column using buffer C using a flowrate of 2.0 mL/min for 1.5 h. The lysate was then loaded onto the column and eluted with a linear NaCl gradient from 0-500 mM. Fractions containing NDM-1 were identified with SDS-PAGE. These fractions were pooled and concentrated to 2-3 mL in an Amicon ultracentrifugation concentrating unit with a YM-10 membrane. The resulting protein mixture was then loaded onto a Sephacryl S-200 gel filtration column run with 50 mM HEPES, pH 7.5 containing 150 mM NaCl (Buffer A). SDS-PAGE was used to identify fractions containing pure protein.
as §1, §2

Data set [5] concerns the target T1, VIM-2. The following applies: after incubation with inhibitor and dialysis. The method, then:
VIM-2 was diluted to 6 μM with 50 mM HEPES, pH 7.5, containing 150 mM NaCl. The diluted protein solution was used to make several 5 mL aliquots. […] One aliquot contained one molar equivalent of inhibitor (6 μM), with respect to enzyme concentration, and the second aliquot contained two molar equivalents (12 μM). One aliquot contained no inhibitor. Each aliquot was then incubated for 4 h at 4° C. Following incubation, each aliquot was dialyzed versus 500 mL of 50 mM HEPES, pH 7.5, for 4 h at 4° C. The aliquots were analyzed using ICP-AES, as previously described REF. The emission wavelengths used were 213.856, 238.892, 259.940, 231.604, and 324.754 nm for Zn, Co, Fe, Ni, and Cu, respectively.
To further address the mode of action of 8-hydroxyquinolines, equilibrium dialysis experiments were conducted. […] EDTA, a well-known metal scavenger, inhibits all MBLs through a chelation mechanism (Bush, K.; Jacoby, G. A. Updated Functional Classification of beta-Lactamases. Antimicrobial Agents and Chemotherapy 2010, 54, 969-976).

Data set [6] can be described thus: in vitro. The note with it: human, HEK293 cells.
Description: (§4) Human embryonic kidney cell line (HEK293) were grown in 100 mm cell culture petri dishes at 37° C. with 5% CO2 in Dulbecco's Modified Eagle's Medium high glucose medium containing 1% penicillin/streptomycin (Sigma-Aldrich, St. Louis, MO) and supplemented with 5% of fetal bovine serum (Thermo Fisher Scientific Gibco®). Cells under 10 passages and the 80% of monitored cell petri dish were used for experiment.
(§5) Cytotoxicity of tested compounds were estimated using the MTT method. Cell viability were measured by counting viable cells by using the 3 (4,5dimethylthiazol-2-yl)-2,5-diphenyltetrazolium bromide (MTT) (Sigma-Aldrich, St. Louis, MO) colorimetric dye-reduction assay. […] Following 24 h incubation and attachment, the cells were incubated for 72 h with different concentrations of inhibitors (0.01˜100 μM) in culture media without FBS. The Control cells were supplemented only with a medium without containing FBS. All samples in 96 well plate were incubated at 37° C. at an atmosphere of 5% CO2. […] The absorbance was measured using a micro-plate reader at wavelength 590 nm. The CC50 were obtained based on a comparison with untreated cells by fitting the data to a sigmoidal dose-response equation using Graphpad Prism 6.
A short description of data set [7]: in vitro. The note with it: human, plasma. The method, then: The plasma stability assay was performed in triplicate by incubating the test compound in normal human plasma at 37° C. At 0, 1, 3, 6, and 24 h, aliquots of the plasma mixture were taken and quenched with 3 volumes of acetonitrile. The samples were then vortexed and centrifuged at 14,000 rpm for 3 min at 4° C. The supernatants were collected and analyzed by LC-MS/MS to determine the remaining percentage at various time points and to calculate plasma half-life (t1/2).

A short description of data set [8]: in vitro. The note with it: human, microsomes, pH 7.4. How it is done:
The in vitro microsomal stability assay was conducted in triplicate in human liver microsomal systems. In a typical incubation, the test compound was spiked into the reaction mixture containing 0.5 mg/mL of liver microsomal protein and 1 mM of NADPH in 0.1 M potassium phosphate buffer (pH 7.4) at 37° C. At various time points, 1 volume of reaction aliquot was taken and quenched with 3 volumes of acetonitrile. The samples were then vortexed and centrifuged at 14,000 rpm for 3 min at 4° C. The supernatants were collected and analyzed by LC-MS/MS to determine the in vitro metabolic half-life (t1/2) and intrinsic clearance (CLint).

Where [9] appears, read: in the presence of 50 μM amoxicillin.

Structures are written as SMILES. Where two headings read alike, the source gives them in different places.

Sequence of NDM-1 (C7C422 whole entry, looked up, species assumed): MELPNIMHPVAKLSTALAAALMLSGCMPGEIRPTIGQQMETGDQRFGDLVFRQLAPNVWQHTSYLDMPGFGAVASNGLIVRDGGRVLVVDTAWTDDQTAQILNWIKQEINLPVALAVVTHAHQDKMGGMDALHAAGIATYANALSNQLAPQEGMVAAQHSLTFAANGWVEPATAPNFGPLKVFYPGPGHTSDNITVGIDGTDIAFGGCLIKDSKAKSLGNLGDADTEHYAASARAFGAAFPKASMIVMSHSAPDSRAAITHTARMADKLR
Description for HEK293 cells: as §4, §5

As usually defined, the CC50 is the concentration giving 50% cytotoxicity. Broadly, the IC50 is the midpoint of a concentration-inhibition curve. Usually Ki stands for a dissociation constant, usually derived from enzyme kinetics or from competition with a known ligand. The EC50 is the concentration at which the effect is half-maximal. `O=[N+]([O-])c1ccc(O)c2ncccc12` [Compound 41] showed a CC50 in the data set on HEK293 cells of 7800 nM. Moreover, on VIM-2 [1], the IC50 was 670 nM and the Ki came out at 250 nM. This compound also showed a VIM-2 percentage inhibition at VIM-2 [2] of 86%. Further, the EC50 with VIM-2 expressing E. coli [3] (50 uM amoxicillin) came to 70 nM. The EC50 in the data set with VIM-2 expressing E. coli [3] (setting [9]) came out at 70 nM.
As a reminder, the inhibition is the drop in the measured response relative to a control, in per cent. In general, half-life refers to the time in which the quantity being followed falls by half. Read a low half-life as fast loss. In the case of `O=C(O)c1ccc2cccnc2c1O` [Compound 45, 8-hydroxyquinoline-7-carboxylic acid], the synergistic growth inhibition result with VIM-2 expressing E. coli [4] is recorded as “over 96%”. For the same compound, the inhibition at 50 µM at NDM-1 was 99%; on VIM-2 [2] (read-out: VIM-2 percentage inhibition, 50 μM compound, 5 nM MBL, 10 μM nitrocefin, 30 mins), 94%. In addition, the “metal content of VIM-2 / removal of Zn(II) from the active site” value at VIM-2 [5] is listed as “do not inhibit VIM-2 by removal of Zn(II)”. Besides, in “in vitro [6]”, the CC50 at 72 h is greater than 100000 nM. Further, the half-life in the data set “in vitro [7]” was greater than 24 h; in “in vitro [8]”, greater than 1 h.
For the compound `Oc1c(I)cc(Cl)c2cccnc12` [Compound 48, Clioquinol, reference compound], the synergistic growth inhibition result in the data set on VIM-2 expressing E. coli [4] is “over 96%”. This compound also showed a CC50 in the data set with HEK293 cells of 18300 nM. In addition, at VIM-2 [1], the IC50 stood at 5100 nM and the Ki was found to be 1100 nM. Further, the “metal content of VIM-2 / removal of Zn(II) from the active site” value on VIM-2 [5] is “do not inhibit VIM-2 by removal of Zn(II)”. Further, the VIM-2 percentage inhibition on VIM-2 [2] worked out at 93%. Further, the EC50 in the data set with VIM-2 expressing E. coli [3] (setting [9]) came out at 940 nM.
